Reference: ChEMBL document CHEMBL1201862, “PubChem BioAssay data set” (2004)
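Test compounds were applied to cells in 96-well plates for 48 hours at 5 doses. GI50 is the concentration that inhibits growth by half.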 Active and inactive are the calls of the source. Cut-off read from the data, not from the text of the source: active = GI50 up to about 1.1 µM and inactive = higher.

Legend:
Test in all cases: DTP human tumour cell line panel, 48 h
[1] = test system: SF-268
[2] = test system: SF-539
[3] = test system: SW-620
[4] = test system: MOLT-4
[5] = test system: HOP-18
[6] = test system: SK-MEL-28
[7] = test system: IGROV-1
[8] = test system: HCT-15
[9] = test system: U-251
[10] = test system: ACHN
[11] = test system: XF498
[12] = test system: M19-MEL
[13] = test system: RXF 631
[14] = test system: NCI-H23
[15] = test system: HCT-116
[16] = test system: HL-60
[17] = test system: KM-20L2
[18] = test system: COLO 205
[19] = test system: TK-10
[20] = test system: RPMI-8226
[21] = test system: NCI-H460
[22] = test system: UO-31
[23] = test system: A498
[24] = test system: HOP-92
[25] = test system: EKVX
[26] = test system: NCI-H522
[27] = test system: LOX IMVI
[28] = test system: DMS-114
[29] = test system: SK-MEL-5
[30] = test system: 786-0
[31] = test system: M14
[32] = test system: HT-29
[33] = test system: CCRF-CEM
[34] = test system: A549
[35] = test system: SK-OV-3
[36] = test system: K562
[37] = test system: HOP-62
[38] = test system: UACC-62
[39] = test system: DMS-273
[40] = test system: RXF 393
[41] = test system: LXFL 529
[42] = test system: OVCAR-8
[43] = test system: SN12C
[44] = test system: DLD-1
[45] = test system: CAKI-1
[46] = test system: PC-3
[47] = test system: MDA-MB-435
[48] = test system: OVCAR-5
[49] = test system: SNB-19
[50] = test system: MCF7
[51] = test system: HCC 2998
[52] = test system: Hs-578T
[53] = test system: OVCAR-4
[54] = test system: SF-295
[55] = test system: SK-MEL-2
[56] = test system: Malme-3M
[57] = test system: UACC-257
[58] = test system: T47D
[59] = test system: OVCAR-3
[60] = test system: NCI-H226
[61] = test system: SNB-75
[62] = test system: DU-145
[63] = test system: BT-549
[64] = test system: MDA-N
[65] = test system: SR
[66] = test system: KM12
[67] = test system: MDA-MB-231
[68] = test system: NCI/ADR-RES
[69] = test system: SNB-78

In the case of `Cc1nc2ccccc2c(=O)n1/N=C(\N=N\c1ccccc1Cl)c1ccccc1Cl`, the GI50 [1] is reported as 35.1 µM (inactive), the GI50 [2] is reported as 27.2 µM (inactive) and the GI50 [3] is reported as > 100 µM (inactive). The GI50 [4] was 22.1 µM (inactive), the GI50 [5] was 28 µM (inactive) and the GI50 [6] was > 100 µM (inactive). For the same compound, the GI50 [7] was 42.1 µM (inactive), the GI50 [8] was 57.1 µM and the GI50 [9] was 48.5 µM (inactive). For the same compound, the GI50 [10] was 50.5 µM (inactive), the GI50 [11] was 11.9 µM (inactive) and the GI50 [12] was > 100 µM (inactive). The GI50 [13] was 88.9 µM (inactive), the GI50 [14] was 34 µM (inactive) and the GI50 [15] was 36.4 µM (inactive). The GI50 [16] was 27.9 µM (inactive), the GI50 [17] was 76.7 µM (inactive) and the GI50 [18] was > 100 µM (inactive). The GI50 [19] was 48 µM (inactive), the GI50 [20] was 30.1 µM (inactive) and the GI50 [21] was 73.5 µM (inactive). The GI50 [22] was 36.1 µM (inactive), the GI50 [23] was 43 µM (inactive) and the GI50 [24] was 13 µM (inactive). For the same compound, the GI50 [25] was 28.8 µM (inactive), the GI50 [26] was 22.9 µM (inactive) and the GI50 [27] was 86.5 µM (inactive). For the same compound, the GI50 [28] was 26.4 µM (inactive), the GI50 [29] was 63.1 µM (inactive) and the GI50 [30] was 48 µM (inactive). For the same compound, the GI50 [31] was > 100 µM (inactive), the GI50 [32] was 53.6 µM (inactive) and the GI50 [33] was 77.3 µM (inactive). For the same compound, the GI50 [34] was > 100 µM (inactive), the GI50 [35] was 22.9 µM (inactive) and the GI50 [36] was 37.3 µM (inactive). The GI50 [37] was 34.8 µM (inactive), the GI50 [38] was 58.9 µM (inactive) and the GI50 [39] was 44.8 µM (inactive). The GI50 [40] was 17.9 µM (inactive), the GI50 [41] was 52.1 µM (inactive) and the GI50 [42] was > 100 µM (inactive). For the same compound, the GI50 [43] was 38.8 µM (inactive), the GI50 [44] was 67.5 µM (inactive) and the GI50 [45] was 29.4 µM (inactive).
In the case of `O=P(O)(NCCCl)NCCCl` [PALIFOSFAMIDE], the GI50 [1] is reported as 57.8 µM (inactive), the GI50 [2] is reported as 52.5 µM (inactive) and the GI50 [3] is reported as > 10 µM (inactive). For the same compound, the GI50 [4] was 60.3 µM (inactive), the GI50 [5] was > 10 µM (inactive) and the GI50 [6] was > 100 µM (inactive). The GI50 [46] was > 100 µM (inactive), the GI50 [7] was > 100 µM (inactive) and the GI50 [8] was > 10 µM. For the same compound, the GI50 [9] was > 10 µM (inactive), the GI50 [10] was 39.3 µM (inactive) and the GI50 [47] was > 100 µM (inactive). For the same compound, the GI50 [48] was > 10 µM (inactive), the GI50 [11] was > 10 µM (inactive) and the GI50 [12] was > 10 µM (inactive). For the same compound, the GI50 [13] was > 100 µM (inactive), the GI50 [14] was 64.6 µM (inactive) and the GI50 [15] was > 100 µM (inactive). The GI50 [49] was > 10 µM (inactive), the GI50 [50] was > 100 µM (inactive) and the GI50 [16] was > 51.3 µM (inactive). For the same compound, the GI50 [17] was > 10 µM (inactive), the GI50 [18] was > 100 µM (inactive) and the GI50 [51] was > 100 µM (inactive). For the same compound, the GI50 [19] was > 10 µM (inactive), the GI50 [20] was > 89.5 µM (inactive) and the GI50 [52] was > 100 µM (inactive). The GI50 [21] was 28.8 µM (inactive), the GI50 [53] was > 100 µM (inactive) and the GI50 [22] was > 100 µM (inactive). The GI50 [54] was 54.1 µM (inactive), the GI50 [23] was > 100 µM (inactive) and the GI50 [24] was > 100 µM (inactive). For the same compound, the GI50 [25] was > 10 µM (inactive), the GI50 [55] was > 100 µM (inactive) and the GI50 [26] was > 100 µM (inactive). For the same compound, the GI50 [27] was 29.9 µM (inactive), the GI50 [56] was > 100 µM (inactive) and the GI50 [57] was > 10 µM (inactive). The GI50 [28] was 7.33 µM (inactive), the GI50 [58] was > 100 µM (inactive) and the GI50 [29] was > 10 µM (inactive). The GI50 [30] was > 67.8 µM (inactive), the GI50 [31] was > 100 µM (inactive) and the GI50 [59] was > 10 µM (inactive). The GI50 [32] was > 10 µM (inactive), the GI50 [60] was > 100 µM (inactive) and the GI50 [33] was 47.5 µM (inactive). The GI50 [61] was > 65.6 µM (inactive), the GI50 [62] was 92.9 µM (inactive) and the GI50 [34] was 81.5 µM (inactive). For the same compound, the GI50 [35] was > 55.8 µM (inactive), the GI50 [36] was > 100 µM (inactive) and the GI50 [37] was 65.6 µM (inactive). For the same compound, the GI50 [63] was > 100 µM (inactive), the GI50 [38] was 38.6 µM (inactive) and the GI50 [64] was > 100 µM (inactive). For the same compound, the GI50 [39] was 40 µM (inactive), the GI50 [40] was > 10 µM (inactive) and the GI50 [65] was 4.95 µM (inactive). For the same compound, the GI50 [41] was > 10 µM (inactive), the GI50 [42] was > 10 µM (inactive) and the GI50 [66] was > 10 µM (inactive). For the same compound, the GI50 [43] was 63 µM (inactive), the GI50 [67] was > 100 µM (inactive) and the GI50 [44] was > 10 µM (inactive). For the same compound, the GI50 [45] was 39.8 µM (inactive), the GI50 [68] was > 100 µM (inactive) and the GI50 [69] was > 10 µM (inactive).
